This is an account of results in patent publication US20060100269A1, “Use of 10-aminoaliphatyl-dibenz[b,f]oxepines for the treatment of degenerative ocular disorders” (priority 2003, published 2006).

For experiment [1], the system named is retinal ganglion cells (RGCs). Kind of experiment: transient retinal ischemia by selective ligature of ophthalmic vessels, RGC rescue. It counts as in vivo. Conditions: adult Sprague-Dawley rats; 60 minutes ischemia causing 30% RGC death seven days after ischemia; intraperitoneal injection, 0.005 mg/kg. How it is done: In particular, in adult Sprague-Dawley rats, transient retinal ischemia induced by selective ligature of ophthalmic vessels for 60 minutes, causes a 30% RGC death seven days after ischemia.

The subject of experiment [2] is retinal ganglion cells (RGCs). Kind of experiment: crush of the rat optic nerve, RGC loss and apoptotic nuclei. It counts as in vivo. The settings on record: 0.1 mg/kg subcutaneously, assessed 18 days after optic nerve crush.

The molecule `C#CCN(C)CC1=Cc2ccccc2Oc2ccccc21.O=C(O)/C=C\C(=O)O` [N-(dibenz[b,f]oxepin-10-ylmethyl)-N-methyl-N-prop-2-ynylamine hydrogen maleate] yielded an RGC rescue rate in experiment [1] of 45%. In experiment [2], the “increase in apoptotic nuclei” value is on record as “significantly reduces” and the “loss of RGCs” value was “significantly reduces”.
